The values that follow come from US9505780B2, “Thienopyranones as kinase and epigenetic inhibitors” (SignalRx Pharmaceuticals, Inc., priority 2014, dated 2016).

Each structure is given as a SMILES string.

The target of test [1] is PI3Kδ (Homo sapiens (Human), UniProt O00329). The test can be described thus: PI3K delta isoform inhibition. The format is biochemical. The source says:
Inhibitory activity can be determined routinely using known methods and also front commercial vendors offering this service for kinases and bromodomain proteins. […] In vivo, PI3K inhibition can be determined from target tissue biopsies by standard tissue processing to disrupt cells and then performing Western Blot analysis to determine the presence or absence of pAKT (substrate of PI3K) relative to a control sample. The activity of a compound of the invention as an inhibitor of a bromodomain-containing protein, such as a BET protein, such as BRD2, BRD3, BRD4, and/or BRDT, or an isoform or mutant thereof may be determined in vitro, in vivo, or in a cell line. In vitro assays include assays that determine inhibition of bromodomain-containing proteins. Alternatively, inhibitor binding may be determined by running a competition experiment where a provided compound is incubated with a bromodomain-containing protein, such as a BET protein bound to known ligands, labeled or unlabeled. For example, bromodomain inhibition can be determined in vitro using Alpha Screen Technology (http://www.reactionbiology.com/webapps/site/NewsPDFs/Bromodomain%20Assay%20Platform%20for%20Drug%/20Screening%20and%20Discovery.pdf). In vivo bromodomain inhibition can be determined indirectly by evaluating the amount of protect present of proteins whose genes' transcription is influenced or controlled by the bromodomain protein, for example, the MYCN protein transcription is controlled by BRD4 (J. E. Delmore et al., Cell 2011, 146, 904-917; A. Puissant, Cancer Discov. 2013, 3, 308-323). Bromodomain inhibition may also be predicted by in silico modeling as described below in the Examples.
(§1) Several TP Scaffold compounds (structures shown in FIG. 2 and Table 3) were tested for inhibition activity against isoforms of PI3K (alpha, beta, gamma, and delta isoforms) and the bromodomain protein BRD4 at regions 1 (BRD4-1) and 2 (BRD4-2).

Test [2] deals with PI3Kγ (Homo sapiens (Human), UniProt P48736). The test can be described thus: PI3K gamma isoform inhibition. In kind it is biochemical.
PI3Kγ, sequence (P48736 whole entry, canonical isoform): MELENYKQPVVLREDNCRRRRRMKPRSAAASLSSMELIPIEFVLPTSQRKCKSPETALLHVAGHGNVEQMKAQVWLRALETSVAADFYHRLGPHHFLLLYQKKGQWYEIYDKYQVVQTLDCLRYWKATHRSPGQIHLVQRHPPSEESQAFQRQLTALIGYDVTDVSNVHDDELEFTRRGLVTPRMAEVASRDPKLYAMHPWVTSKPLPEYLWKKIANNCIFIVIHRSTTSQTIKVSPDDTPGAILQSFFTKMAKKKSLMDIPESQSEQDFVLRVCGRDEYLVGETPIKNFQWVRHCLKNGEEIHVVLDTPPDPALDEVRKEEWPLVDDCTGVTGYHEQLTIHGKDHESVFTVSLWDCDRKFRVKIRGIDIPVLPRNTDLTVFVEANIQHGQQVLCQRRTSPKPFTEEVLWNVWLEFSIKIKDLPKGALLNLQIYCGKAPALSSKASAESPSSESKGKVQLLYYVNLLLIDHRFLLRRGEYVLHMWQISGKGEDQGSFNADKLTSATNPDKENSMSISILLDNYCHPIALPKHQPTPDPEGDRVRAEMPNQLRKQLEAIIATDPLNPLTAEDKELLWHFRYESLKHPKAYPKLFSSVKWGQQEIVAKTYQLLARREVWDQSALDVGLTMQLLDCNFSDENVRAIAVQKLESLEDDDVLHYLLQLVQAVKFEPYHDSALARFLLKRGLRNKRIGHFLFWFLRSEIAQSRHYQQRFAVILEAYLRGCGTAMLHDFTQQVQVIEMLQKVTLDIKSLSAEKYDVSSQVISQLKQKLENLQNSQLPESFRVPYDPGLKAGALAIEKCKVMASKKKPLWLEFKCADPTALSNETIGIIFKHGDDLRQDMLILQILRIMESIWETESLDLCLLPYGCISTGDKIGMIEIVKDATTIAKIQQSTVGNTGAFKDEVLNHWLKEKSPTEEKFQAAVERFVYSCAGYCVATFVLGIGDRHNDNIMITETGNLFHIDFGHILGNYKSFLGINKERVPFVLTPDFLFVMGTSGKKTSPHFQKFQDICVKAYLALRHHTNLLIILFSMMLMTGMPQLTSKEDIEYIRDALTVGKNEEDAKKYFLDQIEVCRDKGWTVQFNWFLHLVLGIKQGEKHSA
Test [3] has as its target BRD4-1 (Homo sapiens (Human), UniProt O60885). The test can be described thus: BRD4 region 1 (BRD4-1) inhibition. The format is biochemical.
The target of test [4] is BRD4-2 (Homo sapiens (Human), UniProt O60885). The test can be described thus: BRD4 region 2 (BRD4-2) inhibition. The format is biochemical.
Test [5] has as its target PI3Kβ (Homo sapiens (Human), UniProt P42338). The test can be described thus: PI3K beta isoform inhibition. In kind it is biochemical.
Test [6] deals with MYCN amplified SKNBE(2) cells. The test can be described thus: Brd4 chromatin precipitation, quantitative PCR of MYCN promoter region. The format is cell-based, human. The following applies: 24 hours exposure. Here is the method: MYCN amplified SKNBE(2) cells were exposed to inhibitors for 24 hours then chromatin was precipitated with Brd4 (rabbit polyclonal antibody) along with rabbit IgG as a negative control (IgG). Precipitated chromatin was analyzed for the MYCN gene (2 sites within the MYCN promoter region) by quantitative PCR and enrichment is shown as the percentage of total input DNA (FIG. 4). The negative control region primers amplify within a gene desert region approximately 1 Mb away from MYCN (MYC-N NR). Error bars represent ±SEM of triplicate data. P<0.05 as compared to positive control (paired t-test). Positive control: No inhibitor; IP with BRD4 antibody, Negative Control: No inhibitor, IP with rabbit IgG.

In test [7] the test system is SKNBE (2) cells. The test can be described thus: Western blot of p-AKT and N-MYC in SKNBE(2) cells. The following applies: 24 hrs treatment, IGF stimulated. The format is cell-based, human. How it is done: Cells were stimulated with 50 ng/ml IGF for 30 min and used for lysate preparation. Proteins were quantitated by the BCA protein assay (Pierce). Equal amounts of protein were resolved by polyacrylamide gels, transferred to nitrocellulose membrane and probed by Western blot with the following primary antibodies: p-AKT(Ser473), API (Cell Signaling Technologies), N-MYC, CyclinD1 and β-actin (Santa Cruz Biotechnology).
In general terms: Immunoblotting shows a protein as a band on a membrane.

The target of test [8] is BRD4 (Homo sapiens, UniProt O60885). The test can be described thus: BRD4 inhibition assay (region not distinguished). The format is biochemical. The note with it: for BRD4 inhibition: BRD4 regions 1 and 2.
Test [9] concerns HDAC. The test can be described thus: HDAC inhibitory activity, commercially available kit. The following applies: for HDAC inhibitory activity: 1, 10, 50 μM. The format is biochemical.
For test [10], the system named is SKNBE(2). The test can be described thus: Cytotoxicity / proliferation study, alone and in combination. The format is cell-based, human.
For test [11], the system named is NB9464. The description is as above. The format is cell-based, murine.
The subject of test [12] is PI3K. The test can be described thus: PI3K inhibition (isoform not distinguished). In kind it is biochemical. How it is done: as §1
All thienopyranone-based compounds tested inhibited either PI3K or BRD4 or both PI3K and BRD4. […] JQ1+, a known bromodomain inhibitor, was used as reference compound.

For test [13], the system named is MYCN-dependent MB patient derived xenograft (PDX) cell line. The test can be described thus: Cytotoxicity / proliferation study, alone and in combination. In kind it is cell-based.
Test [14] has as its target PI3Kα (Homo sapiens (Human), UniProt P42336). The test can be described thus: PI3K alpha isoform inhibition. In kind it is biochemical.
Test [15] relates to PI-3 kinases. The note with it: cited from earlier work.
Test [16] relates to breast cancer stem cells. The note with it: decreased from 11%; tumors with high HER2; cited from earlier work.

As usually defined, the IC50 is the concentration needed to halve the response being measured.

PI3Kδ, sequence (O00329 whole entry, canonical isoform): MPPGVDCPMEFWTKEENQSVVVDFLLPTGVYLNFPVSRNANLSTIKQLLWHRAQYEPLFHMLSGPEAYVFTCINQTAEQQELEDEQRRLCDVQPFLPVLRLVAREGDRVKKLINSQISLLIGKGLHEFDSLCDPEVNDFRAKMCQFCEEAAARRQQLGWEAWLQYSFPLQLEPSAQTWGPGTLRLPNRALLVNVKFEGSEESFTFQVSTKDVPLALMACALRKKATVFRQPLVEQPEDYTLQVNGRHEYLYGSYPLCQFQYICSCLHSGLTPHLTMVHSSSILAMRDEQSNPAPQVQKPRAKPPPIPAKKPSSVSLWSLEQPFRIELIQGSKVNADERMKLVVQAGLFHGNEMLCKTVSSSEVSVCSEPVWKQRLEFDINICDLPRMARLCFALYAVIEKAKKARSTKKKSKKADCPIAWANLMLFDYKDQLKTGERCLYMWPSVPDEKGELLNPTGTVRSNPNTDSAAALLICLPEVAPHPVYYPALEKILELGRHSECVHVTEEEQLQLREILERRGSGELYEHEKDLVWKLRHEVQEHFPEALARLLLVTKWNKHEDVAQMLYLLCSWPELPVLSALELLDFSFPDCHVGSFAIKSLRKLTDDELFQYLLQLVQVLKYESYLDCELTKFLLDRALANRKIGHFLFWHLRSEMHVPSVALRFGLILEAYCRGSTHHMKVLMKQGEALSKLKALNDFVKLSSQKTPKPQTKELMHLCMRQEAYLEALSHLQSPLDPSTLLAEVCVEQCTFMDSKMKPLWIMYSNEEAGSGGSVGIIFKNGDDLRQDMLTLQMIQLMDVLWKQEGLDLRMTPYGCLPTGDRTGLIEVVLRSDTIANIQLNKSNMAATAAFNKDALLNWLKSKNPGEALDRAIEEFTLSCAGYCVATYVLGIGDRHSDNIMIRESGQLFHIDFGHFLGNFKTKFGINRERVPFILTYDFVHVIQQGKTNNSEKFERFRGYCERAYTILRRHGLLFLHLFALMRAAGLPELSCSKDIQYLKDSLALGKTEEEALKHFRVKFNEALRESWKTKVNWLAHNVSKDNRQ
PI3Kδ, sequence (P27986 whole entry partner, canonical isoform): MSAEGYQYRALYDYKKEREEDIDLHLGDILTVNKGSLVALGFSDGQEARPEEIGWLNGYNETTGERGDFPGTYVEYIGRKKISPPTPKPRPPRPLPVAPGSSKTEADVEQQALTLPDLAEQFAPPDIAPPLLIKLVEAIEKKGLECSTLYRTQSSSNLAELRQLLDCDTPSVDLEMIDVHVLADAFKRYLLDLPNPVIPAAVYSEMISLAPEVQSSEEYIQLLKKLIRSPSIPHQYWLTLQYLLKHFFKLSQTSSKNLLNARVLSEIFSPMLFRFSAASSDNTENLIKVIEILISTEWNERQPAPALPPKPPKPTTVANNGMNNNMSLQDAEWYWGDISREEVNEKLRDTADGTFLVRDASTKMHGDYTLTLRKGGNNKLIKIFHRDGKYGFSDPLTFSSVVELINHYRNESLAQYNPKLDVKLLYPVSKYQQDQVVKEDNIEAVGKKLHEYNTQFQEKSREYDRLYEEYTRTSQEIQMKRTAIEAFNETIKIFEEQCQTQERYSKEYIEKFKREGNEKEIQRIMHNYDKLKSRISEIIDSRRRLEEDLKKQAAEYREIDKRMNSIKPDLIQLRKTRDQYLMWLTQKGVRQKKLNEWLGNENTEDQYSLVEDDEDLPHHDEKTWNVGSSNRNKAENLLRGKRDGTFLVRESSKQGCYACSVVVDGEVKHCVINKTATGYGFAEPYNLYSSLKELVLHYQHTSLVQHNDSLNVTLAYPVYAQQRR
PI3Kβ, sequence (P42338 whole entry, canonical isoform): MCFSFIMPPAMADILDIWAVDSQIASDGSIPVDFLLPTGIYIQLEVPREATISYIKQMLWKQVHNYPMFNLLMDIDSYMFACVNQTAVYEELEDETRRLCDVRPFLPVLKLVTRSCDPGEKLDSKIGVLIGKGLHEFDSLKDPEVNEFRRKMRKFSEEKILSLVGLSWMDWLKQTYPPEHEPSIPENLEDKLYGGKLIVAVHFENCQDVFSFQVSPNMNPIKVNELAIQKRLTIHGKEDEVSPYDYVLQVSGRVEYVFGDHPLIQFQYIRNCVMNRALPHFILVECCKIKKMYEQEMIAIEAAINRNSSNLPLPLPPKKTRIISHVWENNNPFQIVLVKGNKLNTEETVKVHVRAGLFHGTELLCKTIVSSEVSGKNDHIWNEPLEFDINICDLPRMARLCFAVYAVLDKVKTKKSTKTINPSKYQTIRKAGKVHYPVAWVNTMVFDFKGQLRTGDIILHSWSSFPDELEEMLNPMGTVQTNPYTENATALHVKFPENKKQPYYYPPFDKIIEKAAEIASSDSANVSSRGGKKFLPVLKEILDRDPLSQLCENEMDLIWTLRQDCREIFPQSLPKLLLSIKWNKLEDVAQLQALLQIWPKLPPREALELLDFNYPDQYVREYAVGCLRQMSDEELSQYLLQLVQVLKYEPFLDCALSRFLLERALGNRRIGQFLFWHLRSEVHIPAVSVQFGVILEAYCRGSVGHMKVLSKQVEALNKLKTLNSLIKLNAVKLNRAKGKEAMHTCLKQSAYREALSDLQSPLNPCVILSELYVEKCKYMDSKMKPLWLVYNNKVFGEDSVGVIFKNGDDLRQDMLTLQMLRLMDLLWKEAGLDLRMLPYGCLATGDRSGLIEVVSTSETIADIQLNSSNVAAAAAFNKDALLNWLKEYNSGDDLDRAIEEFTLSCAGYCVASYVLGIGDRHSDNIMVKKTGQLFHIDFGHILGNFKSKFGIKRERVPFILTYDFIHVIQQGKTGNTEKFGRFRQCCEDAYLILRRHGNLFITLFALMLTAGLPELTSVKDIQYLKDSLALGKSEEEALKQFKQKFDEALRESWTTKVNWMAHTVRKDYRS
PI3Kβ, sequence (P27986 whole entry partner, canonical isoform): as the sequence (P27986 whole entry partner, canonical isoform) above
PI3Kα, sequence (P42336 whole entry, canonical isoform): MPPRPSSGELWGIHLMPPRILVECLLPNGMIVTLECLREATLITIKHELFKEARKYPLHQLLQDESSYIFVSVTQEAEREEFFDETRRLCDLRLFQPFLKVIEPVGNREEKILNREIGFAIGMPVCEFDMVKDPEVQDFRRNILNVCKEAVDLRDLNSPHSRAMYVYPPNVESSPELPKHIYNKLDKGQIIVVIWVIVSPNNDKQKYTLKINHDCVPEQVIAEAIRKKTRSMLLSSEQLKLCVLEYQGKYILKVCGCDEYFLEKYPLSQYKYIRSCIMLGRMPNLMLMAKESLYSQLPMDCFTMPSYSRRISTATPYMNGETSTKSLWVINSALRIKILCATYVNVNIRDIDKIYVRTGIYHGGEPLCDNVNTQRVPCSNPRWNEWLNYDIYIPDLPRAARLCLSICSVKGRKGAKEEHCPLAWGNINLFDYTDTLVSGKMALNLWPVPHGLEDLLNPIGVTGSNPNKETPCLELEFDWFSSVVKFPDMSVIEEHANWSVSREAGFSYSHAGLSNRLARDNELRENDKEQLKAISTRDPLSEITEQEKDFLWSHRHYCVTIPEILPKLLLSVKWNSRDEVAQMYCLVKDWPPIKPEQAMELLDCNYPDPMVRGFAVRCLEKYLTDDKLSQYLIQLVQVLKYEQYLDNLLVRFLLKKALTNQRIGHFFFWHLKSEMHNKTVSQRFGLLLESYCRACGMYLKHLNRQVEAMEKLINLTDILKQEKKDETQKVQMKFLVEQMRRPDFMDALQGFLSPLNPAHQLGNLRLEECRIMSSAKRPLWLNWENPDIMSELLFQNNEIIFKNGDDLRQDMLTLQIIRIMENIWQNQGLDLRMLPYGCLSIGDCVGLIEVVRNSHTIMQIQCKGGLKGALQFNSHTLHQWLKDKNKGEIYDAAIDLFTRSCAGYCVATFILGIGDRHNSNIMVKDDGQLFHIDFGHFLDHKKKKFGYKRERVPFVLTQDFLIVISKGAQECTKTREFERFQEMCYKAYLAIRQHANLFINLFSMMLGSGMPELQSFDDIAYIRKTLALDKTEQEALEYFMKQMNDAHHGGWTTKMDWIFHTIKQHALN
PI3Kα, sequence (P27986 whole entry partner, canonical isoform): as the sequence (P27986 whole entry partner, canonical isoform) above

For `CCOC(=O)c1ccc(-c2csc3c(=O)cc(N4CCOCC4)oc23)cc1` [Cmpd 25], the IC50 was determined as 27 nM in test [1]; 1170 nM in test [2]; 277 nM in [3]; 628 nM in test [4]; 1750 nM in [5].
With `O=c1cc(N2CCNCC2)oc2c(-c3ccccc3)cccc12` [LY303511], in [6], the “MYCN expression (Brd4 ChIP, MYCN promoter)” value (shortened to “MYCN expression”) is on record as “significantly repressed MYCN expression”. Besides, the “MYCN protein quantity, Western blot” value in test [7] is “inhibited only MYCN quantities”.
Take `COC(=O)c1ccc(-c2csc3c(=O)cc(N4CCOCC4)oc23)cc1` [Cmpd 44, methyl 4-(5-morpholino-7-oxo-7H-thieno[3,2-b]pyran-3-yl)benzoate]: the IC50 came out at 12 nM in test [1]; 547 nM in test [2]; 811 nM in test [3]; 1470 nM in [4]; 3600 nM in [5]. Besides, in test [8], the “BRD4 inhibition” value is “showed activity”. In addition, the “HDAC inhibitory activity” value in test [9] was “No inhibitor activity”.
For the compound `Cc1sc2c(c1C)C(c1ccc(Cl)cc1)=N[C@@H](CC(=O)OC(C)(C)C)c1nnc(C)n1-2` [JQ-1], the “MYCN expression” value in test [6] is “significantly repressed MYCN expression”. Moreover, the IC50 in test [1] was more than 50000 nM; in test [2], more than 50000 nM; in test [10], 1900 nM; in [11] it was 1600 nM; in [13], 2200 nM; in [14], more than 50000 nM. Moreover, in test [12], the “PI3K inhibition” value is “does not inhibit PI3K”. Further, the “MYCN protein quantity, Western blot” value in test [7] was “inhibited only MYCN quantities”.
Turning to `O=C(O)c1ccc(-c2csc3c(=O)cc(N4CCOCC4)oc23)cc1` [Cmpd 100], the IC50 is 295 nM in test [1]; 259 nM in [2]; 1090 nM in test [3]; 2760 nM in test [4]; 55.2 nM in test [14].
For `O=C(Nc1ccc(-c2csc3c(=O)cc(N4CCOCC4)oc23)cc1)c1ccncc1` [Cmpd 120], in that order: 21 nM, 556 nM, 326 nM, 393 nM and 95 nM.
Regarding `O=c1cc(N2CCOCC2)oc2c(-c3ccccc3)csc12` [Cmpd 6], the IC50 in test [1] was found to be 784 nM; in test [2], 1570 nM; in test [3], 2170 nM; in test [4], 3450 nM; in [5], 378 nM.
As to `O=C(NO)c1ccc(-c2csc3c(=O)cc(N4CCOCC4)oc23)cc1` [Cmpd 118], the IC50 in [1] was 53 nM; in test [2], 806 nM; in [3] it was 193 nM; in test [4], 235 nM; in [14], 90 nM. The figures for the “HDAC activity inhibited versus control” value in [9] (1 μM), in test [9] (10 μM) and in test [9] (50 μM) were 17%, 25% and 41%, respectively. Further, the “HDAC inhibitory activity” value in [9] is “significant HDAC inhibitory activity”.
`O=c1cc(N2CCOCC2)oc2c(-c3ccccc3)cccc12` [LY294002, 2-(4-morpholinyl)-8-phenyl-4H-1-benzopyran-4-one]: in test [6], the “MYCN expression” value was “significantly repressed MYCN expression”. For the same compound, the IC50 in test [1] is 3220 nM; in test [3] it was 5330 nM; in [4] it was 13100 nM; in test [15] it was 1400 nM. Further, the “MYCN protein quantity, Western blot” value in test [7] is given as “decreased”. For the same compound, the “pAKT, Western blot” value in test [7] was “decreased”.
Take `O=c1cc(N2CCOCC2)oc2ccsc12` [Cmpd 10]: the IC50 in test [1] is more than 50000 nM; in test [2] it was more than 50000 nM; in test [3], more than 50000 nM; in test [4], more than 50000 nM; in test [14], 7160 nM; in test [5] it was 9250 nM.
In the case of `O=C(Nc1cccc(-c2csc3c(=O)cc(N4CCOCC4)oc23)c1)Nc1ccc(Cl)c(C(F)(F)F)c1` [Cmpd 123, 1-(4-Chloro-3-trifluoromethyl-phenyl)-3-[3-(5-morpholin-4-yl-7-oxo-7H-thieno[3,2-b]pyran-3-yl)-phenyl]-urea], the IC50 was 9750 nM in test [1]; more than 16700 nM in test [2]; more than 50000 nM in test [3]; more than 50000 nM in test [4]; 7670 nM in test [14].
Turning to `Cn1c(=O)n(-c2ccc(C(C)(C)C#N)cc2)c2c3cc(-c4cnc5ccccc5c4)ccc3ncc21` [BEZ235], the “pAKT, Western blot” value in test [7] is recorded as “decreased pAKT”.
Regarding `Nc1cc(C(F)(F)F)c(-c2cc(N3CCOCC3)nc(N3CCOCC3)n2)cn1` [BKM120], the “BRD4 inhibition” value in test [8] is “no BRD4 inhibition”. Moreover, the “pAKT, Western blot” value in [7] is “decreased pAKT”.
On to `CS(=O)(=O)CCNCc1ccc(-c2ccc3ncnc(Nc4ccc(OCc5cccc(F)c5)c(Cl)c4)c3c2)o1` [Lapatinib], for which the “breast cancer stem cells, % of cells after treatment” value in [16] is on record as 5%.
Regarding `CC[C@H](Nc1ncnc2[nH]cnc12)c1nc2cccc(F)c2c(=O)n1-c1ccccc1` [CAL101], in [8], the IC50 was more than 50 µM and the “BRD4 inhibition” value is reported as “no BRD4 inhibition”. For the same compound, the “pAKT, Western blot” value in [7] is given as “decreased pAKT”.
With `O=c1cc(N2CCSCC2)oc2c(Br)csc12` [Cmpd 127, 3-Bromo-5-thiomorpholino-7H-thieno[3,2-b]pyran-7-one], the IC50 in [1] came to 3300 nM; in [2] it was 9770 nM; in test [3] it was 32600 nM; in test [4], 34200 nM; in [14], 1720 nM.
